Test results as given in patent publication US10413593B2 (priority 2014, dated 2019).
*1 amine or outer side, *2 acyl side, *3 side chain or, on linkers, in order; H or OH if unused. Where a SMILES comes first, the peptide text is derived from it. Where no end group is shown, it is not given here. Side-chain parts run from the residue outwards. [ ]: non-standard residue; d: D form. The star is where a group is joined. C16 = palmitoyl, CCCCCCCCCCCCCCCC(=O)*; γGlu = O=C(O)[C@H](CCC(=O)[*:2])N[*:1]; X1 = O=C(C(N[*:1])C(O)c1ccccc1)[*:2]; Palmitoyl = CCCCCCCCCCCCCCCC(=O)*

Assays:
[1] = Cumulative body weight change in DIO mice, daily s.c. dosing for nine days (Example 18, FIG. 1); format: in vivo, mice (strain C57Bl6/NTac); conditions: 9 nmol/kg s.c. daily, day 9
Protocol: Mice were administered a vehicle control or a dose of a peptide daily for nine days. […] The peptide of SEQ ID NO: 9 was administered at doses of 9 and 25 nmol/kg. Cumulative body weight change (grams) was measured each day of the study except on day 3. Results are shown in FIG. 1 and are expressed as mean±SEM.

[2] = Ambient glucose in DIO mice (Example 21, FIG. 4); format: in vivo, mice (strain C57Bl6/NTac); conditions: for change in ambient glucose compared to vehicle: day 9 of dosing
Protocol: In addition to cumulative body weight change, ambient glucose levels of the DIO mice (strain C57Bl6/NTac) were measured periodically throughout the study.

[3] = Second study in DIO mice: body weight change percent relative to vehicle (Example 19, FIG. 2); format: in vivo, mice (strain C57Bl6/NTac); conditions: eight days
Protocol: In addition, the peptide of SEQ ID NO: 8 was administered at 15 nmol/kg, while the peptide of SEQ ID NOs: 10 and 11 were administered at 3 nmol/kg. Body weight was measured daily for eight days and body weight change is expressed as percent relative to vehicle (FIG. 2).

human GLP-1R = biological target: T1, human GLP-1R (Homo sapiens, UniProt P43220); assay: cAMP assay in cells expressing human GLP-1R (HitHunter cAMP XS); format: cell-based; conditions: cAMP production, assay buffer with 20% human serum, 1 hour, read-out: GLPR1 EC50 (nM) human
T1 construct: expressed in transfected cells
T1 sequence (P43220 24-463): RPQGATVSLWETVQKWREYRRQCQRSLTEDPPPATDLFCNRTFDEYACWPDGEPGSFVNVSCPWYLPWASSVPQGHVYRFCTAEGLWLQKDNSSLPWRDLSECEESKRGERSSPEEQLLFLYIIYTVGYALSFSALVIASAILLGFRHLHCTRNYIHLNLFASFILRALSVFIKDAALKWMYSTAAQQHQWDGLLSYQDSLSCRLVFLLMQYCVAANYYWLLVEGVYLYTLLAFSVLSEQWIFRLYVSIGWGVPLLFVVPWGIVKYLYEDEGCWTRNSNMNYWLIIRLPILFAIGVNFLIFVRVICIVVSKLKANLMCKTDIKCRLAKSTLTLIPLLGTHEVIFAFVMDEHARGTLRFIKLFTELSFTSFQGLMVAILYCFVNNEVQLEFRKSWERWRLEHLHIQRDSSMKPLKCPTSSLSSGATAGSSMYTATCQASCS
Protocol: The cAMP protocol was as follows.
(§1) Peptides were dissolved in 100% DMSO and serially diluted to generate 11 point titrations. The peptide solutions were then transferred into 384-well assay plates (150 nL/well). Assay ready frozen cells expressing human GLP-1R or human GCGR were suspended in growth media consisting of DMEM/F12 medium (GIBCO), 10% FBS (GIBCO), lx P/S (GIBCO), 800 μg/mL Geneticin (GIBCO), and 300 μg/mL Hygromycin (Invitrogen). Cells were then diluted in assay buffer consisting of PBS (GIBCO), 7.5% BSA (Perkin Elmer), 100 μM RO 20-1724 (Sigma), and 20% human serum (MP Biomedical). The cell suspensions (15 μL) were then added to the assay plates containing the peptide solutions (30,000 cells/well for human GCGR; 20,000 cells/well for GLP1R). The cells were incubated for 1 hour at room temperature in the dark. Production of cAMP was determined using HitHunter™ cAMPXS kits (DiscoverX). ED buffer (20 μL) was then added to each well and the plates were incubated for 1 hour at room temperature in the dark. Subsequently, EA buffer (20 μL) was added to each well, and the plates were incubated for 1-18 hours at room temperature in the dark. Luminescence was measured using an EnVision Multilabel plate reader (Perkin Elmer). EC50 values were calculated using ADA data analyzer software.

human GCGR = biological target: T2, human GCGR (Homo sapiens, UniProt P47871); assay: cAMP assay in cells expressing human GCGR (HitHunter cAMP XS); format: cell-based; conditions: for EC50: cAMP production, cells expressing human GCGR, assay buffer with 20% human serum, 1 hour; for hGCGR/hGLP1R (hTone): ratio of EC50 at human GCGR to EC50 at human GLP1R
T2 construct: expressed in transfected cells
T2 sequence (P47871 26-477): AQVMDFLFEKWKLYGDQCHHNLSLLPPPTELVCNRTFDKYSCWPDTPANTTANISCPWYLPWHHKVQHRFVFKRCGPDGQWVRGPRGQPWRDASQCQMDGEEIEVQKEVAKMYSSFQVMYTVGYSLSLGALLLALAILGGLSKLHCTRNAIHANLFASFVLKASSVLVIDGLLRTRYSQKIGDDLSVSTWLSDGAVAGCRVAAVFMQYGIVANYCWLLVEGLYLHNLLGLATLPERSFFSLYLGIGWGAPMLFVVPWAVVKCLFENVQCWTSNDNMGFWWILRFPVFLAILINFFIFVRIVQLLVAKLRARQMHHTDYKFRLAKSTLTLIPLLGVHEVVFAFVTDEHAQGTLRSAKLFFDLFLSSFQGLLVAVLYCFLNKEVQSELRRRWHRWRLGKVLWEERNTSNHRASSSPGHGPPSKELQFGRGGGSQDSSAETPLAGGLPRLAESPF
Protocol: The cAMP protocol was as follows.
as §1

| Compound | body weight loss [1] [grams] | change in ambient glucose compared to vehicle ([2]; 9 nmol/kg) | weight loss, percent relative to vehicle ([3]; 9 nmol/kg daily) | hGCGR/hGLP1R (hTone) (human GCGR) | also measured |
| --- | --- | --- | --- | --- | --- |
| CCCCCCCCCCCCCCCC(=O)N[C@@H](CCC(=O)N[C@@H](CCC(=O)NCCCC[C@H](NC(=O)[C@H](CC(=O)O)NC(=O)[C@H](CO)NC(=O)[C@@H](NC(=O)[C@H](Cc1ccccc1)NC(=O)[C@@H](NC(=O)CNC(=O)[C@@H](NC(=O)C(C)(C)NC(=O)[C@@H](N)Cc1c[nH]cn1)C(C)C)[C@@H](C)O)[C@@H](C)O)C(=O)N[C@@H](CO)C(=O)N[C@@H](CCCCN)C(=O)N[C@@H](Cc1ccc(O)cc1)C(=O)N[C@@H](CC(C)C)C(=O)N[C@@H](CC(=O)O)C(=O)NC(C)(C)C(=O)N[C@@H](CCCNC(=N)N)C(=O)N[C@@H](C)C(=O)N[C@@H](C)C(=O)N[C@@H](CCC(N)=O)C(=O)N[C@@H](CC(=O)O)C(=O)N[C@@H](Cc1ccccc1)C(=O)N[C@H](C(=O)N[C@@H](CCC(N)=O)C(=O)N[C@@H](Cc1c[nH]c2ccccc12)C(=O)N[C@@H](CC(C)C)C(=O)N[C@@H](CCCC)C(=O)N[C@@H](CC(=O)O)C(=O)N[C@H](C(N)=O)[C@@H](C)O)C(C)C)C(=O)O)C(=O)O [SEQ ID NO: 9] | ~3 | did not exhibit significant changes in ambient glucose | approximately 5% |  | decrease in ambient glucose compared to vehicle ([2]; 25 nmol/kg, second day of dosing): -75 mg/dL |
| CCCCCCCCCCCCCCCC(=O)N[C@@H](CCC(=O)N[C@@H](CCC(=O)NCCCC[C@H](NC(=O)[C@H](CC(=O)O)NC(=O)[C@H](CO)NC(=O)[C@@H](NC(=O)[C@H](Cc1ccc(F)cc1)NC(=O)[C@@H](NC(=O)CNC(=O)[C@H](CCC(N)=O)NC(=O)[C@@H](CO)NC(=O)[C@@H](N)Cc1c[nH]cn1)[C@@H](C)O)[C@@H](C)O)C(=O)N[C@@H](CO)C(=O)N[C@@H](CCCCN)C(=O)N[C@@H](Cc1ccc(O)cc1)C(=O)N[C@@H](CC(C)C)C(=O)N[C@@H](CC(=O)O)C(=O)N[C@@H](CCC(=O)O)C(=O)N[C@@H](CCCNC(=N)N)C(=O)N[C@@H](C)C(=O)N[C@@H](C)C(=O)N[C@@H](CCC(N)=O)C(=O)N[C@@H](CC(=O)O)C(=O)N[C@@H](Cc1ccccc1)C(=O)N[C@H](C(=O)N[C@@H](CCC(N)=O)C(=O)N[C@@H](Cc1c[nH]c2ccccc12)C(=O)N[C@@H](CC(C)C)C(=O)N[C@@H](CC(C)C)C(=O)N[C@@H](CC(=O)O)C(=O)N[C@H](C(N)=O)[C@@H](C)O)C(C)C)C(=O)O)C(=O)O [compound 14] |  |  |  | 0.93 | EC50 (human GLP-1R): 0.06 nM; EC50 (human GCGR): 0.05 nM |
| CCCCCCCCCCCCCCCC(=O)N[C@@H](CCC(=O)N[C@@H](CCC(=O)NCCCC[C@H](NC(=O)[C@H](CC(=O)O)NC(=O)[C@H](CO)NC(=O)[C@@H](NC(=O)[C@H](Cc1ccccc1)NC(=O)[C@@H](NC(=O)CNC(=O)[C@H](CCC(N)=O)NC(=O)[C@@H](CO)NC(=O)[C@@H](N)Cc1c[nH]cn1)[C@@H](C)O)[C@@H](C)O)C(=O)N[C@@H](CO)C(=O)N[C@@H](CCCCN)C(=O)N[C@@H](Cc1ccc(O)cc1)C(=O)N[C@@H](CC(C)C)C(=O)N[C@@H](CC(=O)O)C(=O)N[C@H](C(=O)N[C@@H](CCCNC(=N)N)C(=O)N[C@@H](C)C(=O)N[C@@H](C)C(=O)N[C@@H](CCC(N)=O)C(=O)N[C@@H](CC(=O)O)C(=O)N[C@@H](Cc1ccccc1)C(=O)N[C@H](C(=O)N[C@@H](CCC(N)=O)C(=O)N[C@@H](Cc1c[nH]c2ccccc12)C(=O)N[C@@H](CC(C)C)C(=O)N[C@@H](CC(C)C)C(=O)N[C@@H](CC(=O)O)C(=O)N[C@H](C(N)=O)[C@@H](C)O)C(C)C)C(C)C)C(=O)O)C(=O)O [SEQ ID NO: 8] | 8 | -72 mg/dL | approximately 17% |  | weight loss, percent relative to vehicle ([3]; 15 nmol/kg daily): approximately 25% |
| HsQGTFTSDK(γEγEC16)SKYLDVRRAQDFVQWLLDT-NH2 (H[dS]QGTFTSDK([γGlu-γGlu-C16])SKYLDVRRAQDFVQWLLDT-NH2; N-terminus assumed; SMILES CCCCCCCCCCCCCCCC(=O)N[C@@H](CCC(=O)N[C@@H](CCC(=O)NCCCC[C@H](NC(=O)[C@H](CC(=O)O)NC(=O)[C@H](CO)NC(=O)[C@@H](NC(=O)[C@H](Cc1ccccc1)NC(=O)[C@@H](NC(=O)CNC(=O)[C@H](CCC(N)=O)NC(=O)[C@@H](CO)NC(=O)[C@@H](N)Cc1c[nH]cn1)[C@@H](C)O)[C@@H](C)O)C(=O)N[C@@H](CO)C(=O)N[C@@H](CCCCN)C(=O)N[C@@H](Cc1ccc(O)cc1)C(=O)N[C@@H](CC(C)C)C(=O)N[C@@H](CC(=O)O)C(=O)N[C@H](C(=O)N[C@@H](CCCNC(=N)N)C(=O)N[C@@H](CCCNC(=N)N)C(=O)N[C@@H](C)C(=O)N[C@@H](CCC(N)=O)C(=O)N[C@@H](CC(=O)O)C(=O)N[C@@H](Cc1ccccc1)C(=O)N[C@H](C(=O)N[C@@H](CCC(N)=O)C(=O)N[C@@H](Cc1c[nH]c2ccccc12)C(=O)N[C@@H](CC(C)C)C(=O)N[C@@H](CC(C)C)C(=O)N[C@@H](CC(=O)O)C(=O)N[C@H](C(N)=O)[C@@H](C)O)C(C)C)C(C)C)C(=O)O)C(=O)O) [SEQ ID NO: 7] | ~3 | did not exhibit significant changes in ambient glucose | approximately 5% |  |  |
| CCCCCCCCCCCCCCCC(=O)N[C@@H](CCC(=O)N[C@@H](CCC(=O)NCCCC[C@H](NC(=O)[C@H](CC(=O)O)NC(=O)[C@H](CO)NC(=O)[C@@H](NC(=O)[C@H](Cc1ccccc1)NC(=O)[C@@H](NC(=O)CNC(=O)[C@H](CCC(N)=O)NC(=O)[C@H](C)NC(=O)[C@H](Cc1c[nH]cn1)NC(C)=O)[C@@H](C)O)[C@@H](C)O)C(=O)N[C@@H](CO)C(=O)N[C@@H](CCCCN)C(=O)N[C@@H](Cc1ccc(O)cc1)C(=O)N[C@@H](CC(C)C)C(=O)N[C@@H](CC(=O)O)C(=O)N[C@@H](CCC(=O)O)C(=O)N[C@@H](CCCNC(=N)N)C(=O)N[C@@H](C)C(=O)N[C@@H](C)C(=O)N[C@@H](CCC(N)=O)C(=O)N[C@@H](CC(=O)O)C(=O)N[C@@H](Cc1ccccc1)C(=O)N[C@H](C(=O)N[C@@H](CCC(N)=O)C(=O)N[C@@H](Cc1c[nH]c2ccccc12)C(=O)N[C@@H](CC(C)C)C(=O)N[C@@H](CC(C)C)C(=O)N[C@@H](CC(=O)O)C(=O)N[C@H](C(N)=O)[C@@H](C)O)C(C)C)C(=O)O)C(=O)O [compound 12] |  |  |  | 1.00 |  |
| CCCCCCCCCCCCCCCC(=O)N[C@@H](CCC(=O)NCCCC[C@H](NC(=O)[C@H](CC(=O)O)NC(=O)[C@H](CO)NC(=O)[C@@H](NC(=O)[C@H](Cc1ccccc1)NC(=O)[C@@H](NC(=O)CNC(=O)[C@H](CCC(N)=O)NC(=O)[C@@H](CO)NC(=O)[C@@H](N)Cc1c[nH]cn1)[C@@H](C)O)[C@@H](C)O)C(=O)N[C@@H](CO)C(=O)N[C@@H](CCCCN)C(=O)N[C@@H](Cc1ccc(O)cc1)C(=O)N[C@@H](CC(C)C)C(=O)N[C@@H](CC(=O)O)C(=O)N[C@@H](C)C(=O)N[C@@H](CCCNC(=N)N)C(=O)N[C@@H](C)C(=O)N[C@@H](C)C(=O)N[C@@H](CCC(N)=O)C(=O)N[C@@H](CC(=O)O)C(=O)N[C@@H](Cc1ccccc1)C(=O)N[C@H](C(=O)N[C@@H](CCC(N)=O)C(=O)N[C@@H](Cc1c[nH]c2ccccc12)C(=O)N[C@@H](CC(C)C)C(=O)N[C@@H](CC(C)C)C(=O)N[C@@H](CC(=O)O)C(=O)N[C@H](C(N)=O)[C@@H](C)O)C(C)C)C(=O)O [SEQ ID NO: 6] | 10.5 |  | approximately 20% |  | decrease in ambient glucose compared to vehicle ([2]; 9 nmol/kg, day 7 of dosing): -60 mg/dL |
| CCCCCCCCCCCCCCCC(=O)N[C@@H](CCC(=O)N[C@@H](CCC(=O)NCCCC[C@H](NC(=O)[C@H](CC(=O)O)NC(=O)[C@H](CO)NC(=O)[C@@H](NC(=O)C(NC(=O)[C@@H](NC(=O)CNC(=O)[C@H](CCC(N)=O)NC(=O)[C@@H](CO)NC(=O)[C@@H](N)Cc1c[nH]cn1)[C@@H](C)O)C(O)c1ccccc1)[C@@H](C)O)C(=O)N[C@@H](CO)C(=O)N[C@@H](CCCCN)C(=O)N[C@@H](Cc1ccc(O)cc1)C(=O)N[C@@H](CC(C)C)C(=O)N[C@@H](CC(=O)O)C(=O)N[C@@H](CCC(=O)O)C(=O)N[C@@H](CCCNC(=N)N)C(=O)N[C@@H](C)C(=O)N[C@@H](C)C(=O)N[C@@H](CCC(N)=O)C(=O)N[C@@H](CC(=O)O)C(=O)N[C@@H](Cc1ccccc1)C(=O)N[C@H](C(=O)N[C@@H](CCC(N)=O)C(=O)N[C@@H](Cc1c[nH]c2ccccc12)C(=O)N[C@@H](CC(C)C)C(=O)N[C@@H](CC(C)C)C(=O)N[C@@H](CC(=O)O)C(=O)N[C@H](C(N)=O)[C@@H](C)O)C(C)C)C(=O)O)C(=O)O (stereo partly drawn) [compound 19] (H-H[dS]QGT[X1]TSDK([γGlu-γGlu-Palmitoyl])SKYLDERAAQDFVQWLLDT-NH2; N-terminus assumed) |  |  |  | 1.02 | EC50 (human GLP-1R): 1.02 nM; EC50 (human GCGR): 1.04 nM |
